The record followed here is US11723947B2, “Anti-senescence compounds and uses thereof” (Erasmus University Medical Center Rotterdam, priority 2015, dated 2023).

Square brackets hold non-standard residues; d marks the D form. Ends that are not written are not given here.

One series deals with LOX-IMVI. Nature of the series: Viability of LOX-IMVI metastatic melanoma cells. In kind it is cell-based, human. The protocol: Assay as in FIG. 2C with increasing doses of Vemurafenib. […] LOX-IMVI however is resistant. […] Experiment as in FIG. 2C, but with LOX-IMVI treated with FOXO4 DRI alone, the BRAF^V600E-inhitors Vemurafenib or Dabrafenib, or the MEK inhibitor Trametinib alone, or a combination hereof. […] LOX-IMVI cells were incubated with FOXO4 DRI or Vemurafenib alone or in combination. The cells were co-treated with the pan-caspase inhibitor QVD-OPH to block caspase-dependent cell death. After 3 days the media was refreshed with new QVD-OPH containing media, but in the absence of FOXO4 DRI or Vemurafenib. At day 5 after initial treatment the cells were fixed and stained for Cytochrome C. Cytochrome C is present in the mitochondria in viable cells and is released into the cytosol when apoptosis is activated. Plotted are the number of cells showing release of Cytochrome C. […] LOX-IMVI were assessed for viability in the presence of FOXO4 DRI, the oxidative stress inhibitor N-Acetyl Cysteine (NAC) or the oxidative stressor H2O2. […]
LOX-IMVI cells were plated for (i) cell viability assay as in example 1 by AqueousOne MTT assay, (ii) apoptosis by Cytochrome C release, (iii) longitudinal cell density assay, and incubated with the FOXO4 DRI peptide, Vemurafenib/Trametinib, or their combination, respectively. […] The % of cells with Cytochrome C release was scored.

The test system of series [1] is Senescent and control IMR90. The protocol: The selectivity index (S.I.) for the EC50 values was determined after […] (GraphPad Prism) of the curves. […] Real-time cell density was measured using an xCELLigence detection system (ACEA Biosciences). Prior to the start of the measurement 50 μL DMEM 10% FCS was added to each well of an E-plate view 16 (Roche) to determine background signal. Non-senescent (2000 cells per well) and senescent (5000 cells/well) IMR90 fibroblasts were then plated in 150 μl medium. 16 hours later the E-plate was placed in the xCELLigence reader and the cell density was recorded every 30 minutes. […] Measurements continued for the indicated time-points. […] Experiment as in FIG. 2C, but with the indicated peptides. […] Cells were plated in 4-well Poly-L-Lysine coated glass bottom 35 mm dishes (D141410; Matsumi, Japan) and incubated with NucView488 Caspase-3 (4440; Essen Bioscience). […] 8h after addition the real-time imaging was initiated and every 30 min a grid of 3×3 pictures was imaged. The imaging continued for another 6 days and the images were concatenated using Zen imaging software. […] After 6 days cell viability was determined as in FIG. 2C). […] Experiment as in FIG. 2C, but according to the indicated treatment plan. Instead of one single dose, three doses were given (one day in between) of ⅓ that concentration each time. […] Left: Experiment as in FIG. 2C, but on cells pretreated once daily for two days with IL-1α Receptor Antagonist (RA), which blocks IL-1α/β signaling, recombinant IL-6 and recombinant IL-1α/β. […] Right: Similar experiment as in the left panel, except viability measured one day earlier. […] In senescent cells p53 signaling causes upregulation of the cell-cycle arrest and pro-survival protein p21Cip1. […] Experiment as in FIG. 2K. […] Experiment as in FIG. 2c, but with control and senescent IMR90 stable transduced with shRNAs against p53 or a control shRNA (shGFP).
A) Control IMR90 and IMR90 induced to senesce through 10Gy IR were plated in triplicate for each condition in a 96-well plate. […] After 6 days viability was determined through AqeousOne celltiter assay (Promega) according to the manufacturer's instructions.
Non-senescent (=“normal”, proliferating) IMR90 cells (ATCC #CCL-186, a diploid primary human fibroblast adherent cell line derived from fetal lung tissue) were irradiated with 10Gy Gamma-IR (IR=irradiation). After 7 days these cells are senescent and can be used for experiments comparing them to their non-irradiated (=non-senescent) counterparts. Senescent and non-senescent IMR90 fibroblasts were plated for longitudinal cell density measurement using the xCELLigence system (ACEA Biosciences, Inc., San Diego, Calif.).
5000 senescent (obtained as described above) and 2000 non-senescent IMR90 fibroblasts were plated in 96-well plates incubated with concentrations of NQDI between 0-20 μM and after 6 days cell viability was determined by AqueousOne CellTiter (MTT) assay according to the manufacturer's instructions.
5000 senescent (obtained as described above) and 2000 non-senescent IMR90 fibroblasts were plated in 96-well plates incubated with concentrations of R406, ranging from 16, 32, 64 to 128 nM and after 6 days cell viability was determined by AqueousOne CellTiter (MTT) assay according to the manufacturer's instructions.
Normal human IMR90 fibroblasts were exposed to 10 Gy Ionizing Radiation or treated 3× (bidaily) with 0.5 μM Doxorubicin. Seven days later they were processed for SA-β-Gal staining to visualize senescent cells. […] DAPI was used as a counterstain to visualize nuclei. […] After 6 days the cell viability was determined using an AqueousOne Celltiter (MTT) assay according to the manufacturer's instructions.

Series [2] has as its system senescent and non-senescent IMR90 fibroblasts. As to the kind of experiment: Real-time cell density, xCELLigence, senescent and non-senescent IMR90 fibroblasts. Format: cell-based, human. Particulars: 2 μM on three consecutive days (24, 48 and 72 h). As to the method: Measurements continued for the indicated time-points. […] Experiment as in FIG. 2K.
Cell density after time of plating was followed. […] NQDI is apparently rather safe even at high doses as as non-senescent cells are not affected by 20 uM NQDI.

Series [3] relates to fast aging Xpd^TTD/TTD mice. Nature of the series: Healthspan, organ function and blood parameters of fast aging Xpd^TTD/TTD and wildtype mice. Format: in vivo, mouse. Particulars: 5 mg/kg i.v. day 0, 2 and 4, end of experiment.

Consider `CC(C)(C)c1nc(-c2cccc(NS(=O)(=O)c3c(F)cccc3F)c2F)c(-c2ccnc(N)n2)s1` [Dabrafenib], for which the “LOX-IMVI viability, agent on its own” value in the series on LOX-IMVI (single agent) is given as “do not markedly affect LOX-IMVI viability”.

For `OO` [H2O2], the “LOX-IMVI viability, individually” value in the series on LOX-IMVI (FOXO4 DRI or H2O2 alone) is listed as “only marginally influenced LOX-IMVI viability”.

For the molecule `CCOC(=O)c1c2c3c(cccc3[nH]c1=O)C(=O)c1ccccc1-2` [NQDI, 2,7-Dihydro-2,7-dioxo-3H-naphtho[1,2,3-de]quinoline-1-carboxylic acid ethyl ester], the “% viability over Mock, senescent and non-senescent IMR90” value in series [1] (0-20 μM, 6 days) is given as “clearly reduces cell viability in senescent, but not non-senescent IMR90 fibroblasts”. For the same molecule, the “effect on non-senescent cells at high dose” value in series [1] (20 uM) was “not affected”. For the same molecule, the “cell density, sequential rounds” value in series [2] is on record as “enhance its effectivity towards senescent cell clearance”.

Regarding “[dL][dT][dL][dR][dK][dE][dP][dA][dS][dE][dI][dA][dQ][dS][dI][dL][dE][dA][dY][dS][dQ][dN]G[dW][dA][dN][dR][dR][dS]GG[dK][dR][dP][dP][dP][dR][dR][dR][dQ][dR][dR][dK][dK][dR]G [FOXO4 DRI]”, the “toxicity to the hematopoietic system (blood parameters)” value in series [3] is given as “does not induce toxicity to the hematopoietic system”. Besides, in series [1], the “toxicity to non-senescent cells” value was “proved to be safe to non-senescent cells”.
